Reference: patent publication US20220296518A1, “LIPID-BASED NANOPARTICLE DELIVERY SYSTEM FOR HYDROPHILIC CHARGED COMPOUND” (National Taiwan University, priority 2021, published 2022)
Values after ≈ are worked out from the molar mass of the structure shown.

Experiments:
colon-26 carcinoma tumor = assay: In vivo therapeutic efficacy in colon-26 carcinoma tumor-bearing mice; parameters: species or system BALB/c mice; settings: end of the experiment; 5 mg/kg of dox via tail vein, once per week
Method: C26 […] cancer cell line was implanted into the backs of BALB/c mice to create colon-26 carcinoma tumor-bearing mice. When the tumor grew to 100 mm^3, LNP 1 of the present invention containing dox was injected via mice's vein located in the tail at a dosage of 5 mg/kg of dox, once per week. At predetermined time periods 1, 2, 5, 7, 9, 12, 14, 19, 21, 22 days, tumor volume was determined by Vernier caliper. The experiment continued until either mouse death or the tumor size exceeding 2,500 mm^3.

[1] = In vitro drug release by dialysis at pH 7.4 (PBS) and pH 5.4 (citrate buffer), 37° C.; format: physicochemical
Source text: The “normalized release” is defined as release ratio in pH 5.4 environment divided by release ratio in pH 7.4 environment wherein the release ratio is defined as the percentage of API released from LNP. A high normalized release is a result of high release ratio in pH 5.4 environment as compared to the release ratio in pH 7.4 environment. Since tumor sites present acidic environment, a high normalized release is a metric indicating tumor targeting capability of an LNP. During experiments, PBS buffer was used to simulate a physiological environment at pH of 7.4, while citrate buffer was used to simulate a tumor microenvironment at pH of 5.4, wherein the citrate buffer contains sodium citrate dehydrate and citric acid and its pH can be adjusted using NaOH and HCl. The in vitro API release was evaluated in these two different solutions using the following steps: 1 mg/mL LNP-dox solution in PBS buffer was prepared by diluting LNP-dox using PBS buffer. The solution was placed into a 1 mL/5 cm dialysis tube (Float-A-lyzer), in which the pore size is 100 kDa. The tube was placed into a beaker containing 150 mL dialysis buffer. The beaker was then placed into a 37° C. water bath. Samples of 1 mL solution were taken from the beaker at 0, 0.5, 1, 2, 4, 8, 26, and 31 hour(s). The API content in the samples was analyzed using UV-Vis spectrophotometer such as […]. […]

[2] = test system: methicillin-resistant Staphylococcus aureus; assay: In vitro antibacterial susceptibility, methicillin-resistant Staphylococcus aureus; format: cell-based; settings: 10^5 CFU, about 24 hour, about 37° C.
Method: FIG. 9 illustrates in vitro methicillin-resistant Staphylococcus aureus antibacterial susceptibility to LNP 1 of the present invention encapsulating doxycycline as compared to free form doxycycline both at MIC 0.4 mcg/ml.
(§1) Free form doxycycline and LNP 1 of the present invention containing doxy were separately applied to Staphylococcus aureus bacteria as well as methicillin-resistant Staphylococcus aureus at 10^5 CFU, incubation with LNP for about 24 hour at about 37° C.

Staphylococcus aureus = assay: In vitro antibacterial susceptibility, Staphylococcus aureus; format: cell-based; settings: 10^5 CFU, about 24 hour, about 37° C.
Method: FIG. 8 illustrates in vitro Staphylococcus aureus antibacterial susceptibility to LNP 1 of the present invention encapsulating doxycycline as compared to free form doxycycline both at MIC 0.4 mcg/ml.
as §1

MIC [2]	MIC (Staphylococcus aureus)	Structure (SMILES)	mice that died or had tumor size of over 2500 mm^3 (colon-26 carcinoma tumor)	normalized release (release ratio at pH 5.4 / release ratio at pH 7.4) ([1]; 37° C., dialysis, up to 31 hours)	release rate (in words) ([1]; pH 7.4 and pH 5.4, 37° C., FIG. 6)
–	–	COc1cccc2c1C(=O)c1c(O)c3c(c(O)c1C2=O)C[C@@](O)(C(=O)CO)C[C@@H]3O[C@H]1C[C@H](N)[C@H](O)[C@H](C)O1 [free form dox, doxorubicin]	40%	about 1	released the fastest of the three
0.4 µg/mL (≈ 0.9 µM)	0.4 µg/mL (≈ 0.9 µM)	C[C@H]1c2cccc(O)c2C(=O)C2=C(O)[C@]3(O)C(=O)C(C(N)=O)=C(O)[C@@H](N(C)C)[C@@H]3[C@@H](O)[C@@H]21 [free form doxycycline, doxycycline]	–	–	–
